According to US20240390464A1, “Treatment of Adults With Overweight or Obesity With or Without Weight-Related Comorbidities” (Carmot Therapeutics Inc., priority 2023, published 2024):
Entries after “also recorded” stand apart in the source; their conditions may differ. Marks after values point to notes of the source that are not given here. Numbered stars: 1 amine (or outer) side, 2 acyl side, 3 side chain; on linkers, the order of the positions; unused ones are H or OH. Square brackets hold non-standard residues; d marks the D form. Side chains are listed from the residue outwards. Peptide text beside a SMILES is read from it. * marks the point of attachment. Isobutyryl(2-(3-CN-5-F-Ph)) = CC(C)(C(=O)*)c1cc(F)cc(C#N)c1; C20 diacid = O=C(O)CCCCCCCCCCCCCCCCCCC(=O)*; γGlu = O=C(O)[C@H](CCC(=O)[*:2])N[*:1]; AEEA = NCCOCCOCC(=O)O; Aib = CC(C)(N)C(=O)O; βAla = NCCC(=O)O

How the values were obtained:
[1] = Phase 1 MD Cohorts 11 and 12: pharmacokinetics; conditions: human, in vivo, SC QW
Source text: The secondary objectives of this study are: • To evaluate the pharmacokinetics of CT-388 across 12 consecutive weekly doses for Cohorts 11 and 14 (and additionally, up to 24 weeks for Cohorts 12 and 13); and • To evaluate the PD effect of CT-388 across 12 consecutive weekly doses for Cohorts 11 and 14 (and additionally up to 24 weeks for Cohorts 12 and 13) on body weight and glucose homeostasis in both the fasted state and in the setting of an OGTT in participants with or without T2DM. […] Cohorts 11 and 12 included participants who were obese without T2DM and cohort 13 included patients who were obese with T2DM. Endpoints of this study were safety, including TEAEs, labs, vitals and ECGs; PK, including CT-388 PK concentrations and parameters; and key PD endpoints, including week 12 ([…]) and week 24 ([…]): • a. body weight: % change; absolute change; • b. change in HbA1c, fasting glucose, fasting insulin, HOMA-IR; and • c. waist and hip circumference.

[2] = Phase 1 MAD Cohorts 6-8: safety and tolerability (TEAEs); format: in vivo, human; conditions: for Abdominal Distention / Constipation / Constipation Grade 1 / Constipation Grade 2 / Constipation Grade 3 / Diarrhea / Diarrhea Grade 1 / Diarrhea Grade 2 / Diarrhea Grade 3 / Drug-related TEAEs / Dyspepsia / Eructation / Fatal TEAEs / GI TEAEs (Total) / Gastroesophageal Reflux Disease / Nausea / Nausea Grade 1 / Nausea Grade 3 / Serious TEAEs / Subjects discontinued due to TEAE / Subjects with at least 1 TEAE / TEAE Severity: Grade 1 / TEAE Severity: Grade 2 / TEAE Severity: Grade 3 / Vomiting / Vomiting Grade 1 / Vomiting Grade 2 / Vomiting Grade 3 / Nausea Grade 2: N = 6
Source text: The primary objective of this study is to determine the safety and tolerability of CT-388 in otherwise healthy overweight and obese adult participants when administered once weekly over 4 consecutive weeks with titrated dosing.
Safety and tolerability will be assessed by monitoring adverse events (AE) including local injection-site reactions, measuring vital signs and ECGs, and performing clinical laboratory blood and urine analyses.
• Cohort 6: One weekly dose titrated across 4 consecutive weeks with CT-388 doses of . . . • 5.0 mg at Day 1 • 5.0 mg at Day 8 • 5.0 mg at Day 15 • 7.5 mg at Day 22 • . . . or matched placebo administered subcutaneously in the abdomen • Cohort 7: One weekly dose titrated across 4 consecutive weeks with CT-388 doses of . . . • 5.0 mg at Day 1 • 5.0 mg at Day 8 • 8.0 mg at Day 15 • 12.0 mg at Day 22 • . . . or matched placebo administered subcutaneously in the abdomen • Cohort 8: One weekly dose titrated across 4 consecutive weeks with CT-388 doses of . . . • 5.0 mg at Day 1 • 8.0 mg at Day 8 • 12.0 mg at Day 15 • 12.0 mg at Day 22 • . . . or matched placebo administered subcutaneously in the abdomen (the third dose in Cohort 8 can be lowered to 8.0 mg based on tolerability data from Cohort 7) • Cohort 9: One weekly dose titrated across 4 consecutive weeks with CT-388 doses of . . . • 8.0 mg at Day 1 • 8.0 mg at Day 8 • 12.0 mg at Day 15 • 16.0 mg at Day 22 • . . . or matched placebo administered subcutaneously in the abdomen • Cohort 10: the following two dosing options are proposed in Table 3 below:
A Phase 1, randomized, placebo-controlled, double-blind study was conducted where single ascending doses (SAD; n=40; 0.5-7.5 mg) and multiple ascending doses (MAD; n=24; 5-12 mg via titration in 3 cohorts) were administered as described in Example 1 to overweight/obese adults.
The 24 patients in the MAD arm were divided into three cohorts (Cohorts 6, 7, and 8) as shown in Table 5 below (EOT: end of treatment).
Briefly, participants were randomized 3:1 (6 to CT-388, 2 to placebo, n=8 per cohort). CT-388 was administered once weekly at a dose of 5 mg at baseline in all cohorts and up-titrated up to 12 mg in Cohorts 7 & 8. Oral Glucose Tolerance Test (OGTT) with 75 g glucose solution was performed at baseline (Day −1) and on Day 23. Blood was collected at 15 min prior to OGTT, at OGTT start, and in 30-minute intervals until 120 minutes. Fasting glucose, insulin, C-peptide, and HOMA-IR were measured/calculated at baseline and on Day 23.

## CC[C@H](C)[C@H](NC(=O)[C@H](CC(C)C)NC(=O)[C@H](Cc1c[nH]c2ccccc12)NC(=O)[C@H](CCC(N)=O)NC(=O)[C@@H](NC(=O)[C@H](Cc1ccccc1)NC(=O)[C@H](C)NC(=O)[C@H](CCCCNC(=O)COCCOCCNC(=O)COCCOCCNC(=O)CC[C@H](NC(=O)CCCCCCCCCCCCCCCCCCC(=O)O)C(=O)O)NC(=O)[C@H](CCC(N)=O)NC(=O)[C@H](C)NC(=O)[C@@H](NC(=O)[C@H](CCCCN)NC(=O)[C@H](CC(=O)O)NC(=O)[C@H](CC(C)C)NC(=O)C(C)(C)NC(=O)[C@@H](NC(=O)[C@H](CO)NC(=O)[C@H](Cc1ccc(O)cc1)NC(=O)[C@H](CC(=O)O)NC(=O)[C@H](CO)NC(=O)[C@@H](NC(=O)[C@H](Cc1ccccc1)NC(=O)[C@@H](NC(=O)CNC(=O)[C@H](CCC(=O)O)NC(=O)CCNC(=O)C(C)(C)c1cc(F)cc(C#N)c1)[C@@H](C)O)[C@@H](C)O)[C@@H](C)CC)[C@@H](C)CC)C(C)C)C(=O)N[C@@H](C)C(=O)NCC(=O)NCC(=O)N1CCC[C@H]1C(=O)N[C@@H](CO)C(=O)N[C@@H](CO)C(=O)NCC(=O)N[C@@H](C)C(=O)N1CCC[C@H]1C(=O)N1CCC[C@H]1C(=O)N1CCC[C@H]1C(=O)N[C@@H](CO)C(N)=O [CT-388] ({Isobutyryl(2-(3-CN-5-F-Ph))-βAla}-EGTFTSDYSI[Aib]LDKIAQK([AEEA-AEEA-γGlu-C20 diacid])AFVQWLIAGGPSSGAPPPS-NH2)
[1]
  half-life: ~150 h
[2]; Cohort 6, 5/5/5/7.5 mg SC QW
  Abdominal Distention: 3 n (%)
  Constipation: 3 n (%)
  Constipation Grade 1: 3 n (%)
  Constipation Grade 2: 0 n (%)
  Constipation Grade 3: 0 n (%)
  Diarrhea: 2 n (%)
  Diarrhea Grade 1: 2 n (%)
  Diarrhea Grade 2: 0 n (%)
  Diarrhea Grade 3: 0 n (%)
  Drug-related TEAEs: 33 # Events
  Dyspepsia: 1 n (%)
  Eructation: 0 n (%)
  Fatal TEAEs: 0 # Events
  GI TEAEs (Total): 6 n (%)
  Gastroesophageal Reflux Disease: 0 n (%)
  Nausea: 6 n (%)
  Nausea Grade 1: 4 n (%)
  Nausea Grade 3: 0 n (%)
  Serious TEAEs: 0 # Events
  Subjects discontinued due to TEAE: 0 n (%)
  Subjects with at least 1 TEAE: 6 (100) n (%)
  TEAE Severity: Grade 1: 6 (100) n (%)
  TEAE Severity: Grade 2: 6 (100) n (%)
  TEAE Severity: Grade 3: 0 n (%)
  Vomiting: 5 n (%)
  Vomiting Grade 1: 2 n (%)
  Vomiting Grade 2: 3 n (%)
  Vomiting Grade 3: 0 n (%)
[2]; Cohort 6, 5/5/5/7.5 mg SC QW, same subject experienced both mild and moderate events
  Nausea Grade 2: 4 n (%)
[2]; Cohort 7, 5/5/8/12 mg SC QW
  Abdominal Distention: 0 n (%)
  Constipation: 0 n (%)
  Constipation Grade 1: 0 n (%)
  Constipation Grade 2: 0 n (%)
  Constipation Grade 3: 0 n (%)
  Diarrhea: 2 (33.3) n (%)
  Diarrhea Grade 1: 2 (33.3) n (%)
  Diarrhea Grade 2: 0 n (%)
  Diarrhea Grade 3: 0 n (%)
  Drug-related TEAEs: 18 # Events
  Dyspepsia: 0 n (%)
  Eructation: 2 (33.3) n (%)
  Fatal TEAEs: 0 # Events
  GI TEAEs (Total): 4 (66.7) n (%)
  Gastroesophageal Reflux Disease: 0 n (%)
  Nausea: 1 (16.7) n (%)
  Nausea Grade 1: 1 (16.7) n (%)
  Nausea Grade 2: 0 n (%)
  Nausea Grade 3: 0 n (%)
  Serious TEAEs: 0 # Events
  Subjects discontinued due to TEAE: 0 n (%)
  Subjects with at least 1 TEAE: 6 n (%)
  TEAE Severity: Grade 1: 6 n (%)
  TEAE Severity: Grade 2: 1 n (%)
  TEAE Severity: Grade 3: 0 n (%)
  Vomiting: 2 (33.3) n (%)
  Vomiting Grade 1: 2 (33.3) n (%)
  Vomiting Grade 2: 0 n (%)
  Vomiting Grade 3: 0 n (%)
[2]; Cohort 8, 5/8/12/12 mg SC QW
  Abdominal Distention: 0 n (%)
  Constipation: 1 (16.7) n (%)
  Constipation Grade 1: 1 (16.7) n (%)
  Constipation Grade 2: 0 n (%)
  Constipation Grade 3: 0 n (%)
  Diarrhea: 3 (50.0) n (%)
  Diarrhea Grade 1: 3 (50.0) n (%)
  Diarrhea Grade 2: 0 n (%)
  Diarrhea Grade 3: 0 n (%)
  Drug-related TEAEs: 25 # Events
  Dyspepsia: 0 n (%)
  Eructation: 1 (16.7) n (%)
  Fatal TEAEs: 0 # Events
  GI TEAEs (Total): 5 (83.3) n (%)
  Gastroesophageal Reflux Disease: 2 (33.3) n (%)
  Nausea: 3 (50.0) n (%)
  Nausea Grade 1: 2 (33.3) n (%)
  Nausea Grade 2: 1 (16.7) n (%)
  Nausea Grade 3: 0 n (%)
  Serious TEAEs: 0 # Events
  Subjects discontinued due to TEAE: 0 n (%)
  Subjects with at least 1 TEAE: 6 n (%)
  TEAE Severity: Grade 1: 6 n (%)
  TEAE Severity: Grade 2: 3 n (%)
  TEAE Severity: Grade 3: 0 n (%)
  Vomiting: 2 (33.3) n (%)
  Vomiting Grade 1: 2 (33.3) n (%)
  Vomiting Grade 2: 1 (16.7) n (%)
  Vomiting Grade 3: 0 n (%)
[2]; MAD cohorts, 5 mg up-titrated to 12 mg SC QW over 4 weeks
  tolerability: generally well tolerated; also recorded: generally well-tolerated; also recorded: favorable tolerability profile
